Data published in the RepoRT retention time repository.

Experiment: Waters ACQUITY UPLC BEH C18, 100 × 2.1 mm, 1.7 µm, 40 °C, 0.3 to 0.4 mL/min, estimated dead time 0.63 min; A: water + 0.1% formic acid; B: methanol + 0.1% formic acid; gradient (min/%B) 0/0.5 0.1/0.5 10/80 10.1/99.5 12/99.5
Details: stereoisomer not certain

LC retention time	Structure (SMILES)
2.06 min	O=C(O)CCSCCC(=O)O
4.02 min	CC1CNC2C(C)C3C(CC4C5CCC6CC(OC7OC(CO)C(OC8OC(CO)C(O)C(OC9OCC(O)C(O)C9O)C8OC8OC(CO)C(O)C(O)C8O)C(O)C7O)CCC6(C)C5CCC43C)OC2(O)C1 (centres undefined)
3.47 min	O=C1CC(c2ccc(O)c(O)c2)Oc2c1ccc(OC1OC(CO)C(O)C(O)C1O)c2O (centres undefined)
4.76 min	COc1cc(C=CC(=O)OC2C(OC3C(Oc4ccc(-c5cc(=O)c6c(O)cc(O)cc6o5)cc4)OC(C(=O)O)C(O)C3O)OC(C(=O)O)C(O)C2O)ccc1O (centres undefined)
2.61 min	NC(CCCCNC(=O)C=Cc1ccc(O)c(O)c1)C(=O)O (centres undefined)
1.83 min	O=C1C(O)Oc2ccccc2N1O (centres undefined)
8.22 min	CC(C)=CCc1cc(-c2coc3c(C(C=C(C)C)c4cc(-c5coc6cc(O)cc(O)c6c5=O)ccc4O)c(O)cc(O)c3c2=O)ccc1O (centres undefined)
3.78 min	CC12CC3(O)OC(O1)C1(COC(=O)c4ccccc4)C3CC21OC1OC(CO)C(O)C(O)C1O (centres undefined)
5.88 min	CC(C)=CCCC(C)(OC1OC(COC2OC(CO)C(O)C(O)C2O)C(O)C(O)C1O)C1CCC2(C)C1C(O)CC1C3(C)CCC(OC4OC(CO)C(O)C(O)C4OC4OC(CO)C(O)C(O)C4O)C(C)(C)C3CCC12C (centres undefined)
5.08 min	CC(=O)OC1C(C)OC(OC2C(c3c(O)cc(O)c4c(=O)cc(-c5ccc(O)cc5)oc34)OC(CO)C(O)C2O)C(O)C1O (centres undefined)
4.36 min	CN1CCc2cc3c(cc2C(=O)Cc2ccc4c(c2C1)OCO4)OCO3
2.28 min	CS(=O)CCCCCCCC(N)C(=O)O (centres undefined)
4.19 min	COc1cc(C=CC(=O)OCC2OC(OC3C(c4c(O)cc5oc(-c6ccc(O)c(OC)c6)cc(=O)c5c4O)OC(CO)C(O)C3O)C(O)C(O)C2O)ccc1O (centres undefined)
7.96 min	CC1OC(OC2C(OC3CCC4(C)C(CCC5(C)C4CC=C4C6CC(C)(C)CCC6(C(=O)O)CCC45C)C3(C)CO)OCC(O)C2O)C(O)C(O)C1O (centres undefined)
4.69 min	CC(CCC1(O)OC2CC3C4CCC5(O)CC(OC6OC(CO)C(O)C(O)C6O)C(O)CC5(C)C4CCC3(C)C2C1C)COC1OC(CO)C(O)C(O)C1O (centres undefined)
1.98 min	CCC(C)C(N)C(=O)NC(CCC(=O)O)C(=O)O (centres undefined)
3.8 min	O=c1c(OC2OC(CO)C(O)C(O)C2OC2OC(CO)C(O)C(O)C2O)c(-c2ccc(O)cc2)oc2cc(O)cc(O)c12 (centres undefined)
10.2 min	CCCCCC=CC=CC(=O)CCCCCCCC(=O)O
3.09 min	CC1OC(Oc2cc(O)c3c(=O)c(OC4OC(CO)C(O)C(O)C4OC4OC(C)C(O)C(O)C4O)c(-c4ccc(O)c(O)c4)oc3c2)C(O)C(O)C1O (centres undefined)
4.63 min	O=c1c(-c2ccc(O)c(O)c2)coc2cc(O)ccc12
7.09 min	CC1OC(OC2C(OC3C(OC4CCC5(C)C(CCC6(C)C5CC=C5C7CC(C)(C)CC(O)C7(C)CCC56C)C4(C)CO)OC(C(=O)O)C(O)C3O)OC(CO)C(O)C2O)C(O)C(O)C1O (centres undefined)
3.23 min	COc1cc(-c2oc3cc(O)cc(O)c3c(=O)c2OC2OC(CO)C(O)C(O)C2O)ccc1OC1OC(CO)C(O)C(O)C1O (centres undefined)
5.28 min	CC1OC(Oc2cc(O)c3c(=O)c(O)c(-c4ccc(O)cc4)oc3c2)C(O)C(O)C1O (centres undefined)

LC retention time	Structure (SMILES)
6.34 min	O=C(Cc1c[nH]c2ccccc12)NC(Cc1ccccc1)C(=O)O (centres undefined)
6.12 min	CC1OC(OC2C(O)COC(OC3C(C)OC(OC4C(OC(=O)C56CCC(C)(C)CC5C5=CCC7C8(C)CCC(OC9OC(CO)C(O)C(O)C9O)C(C)(C)C8CCC7(C)C5(C)CC6O)OCC(O)C4O)C(O)C3O)C2O)C(O)C(O)C1O (centres undefined)
3.22 min	O=C1CC(c2ccc(O)c(O)c2)Oc2c1c(OC1OC(CO)C(O)C(O)C1O)cc(O)c2C1OCC(O)C(O)C1O (centres undefined)
4.21 min	COc1cc(C=CC(=O)OCC2OC(OC3C(c4c(O)cc5oc(-c6ccc(O)cc6)cc(=O)c5c4O)OC(CO)C(O)C3O)C(O)C(O)C2O)ccc1O (centres undefined)
3.15 min	CN1C2CCC1CC(OC(=O)C(O)c1ccccc1)C2 (centres undefined)
4.24 min	COc1cc(C=CC(=O)O)ccc1O
3.81 min	O=C(C=Cc1ccc(O)cc1)OCC1OC(OC2C(c3c(O)cc4oc(-c5ccc(O)c(O)c5)cc(=O)c4c3O)OC(CO)C(O)C2O)C(O)C(O)C1O (centres undefined)
4.1 min	CC1OC(OCC2OC(Oc3c(-c4ccccc4O)oc4cc(O)cc(O)c4c3=O)C(O)C(O)C2O)C(O)C(O)C1O (centres undefined)
3.95 min	O=c1cc(-c2ccc(O)cc2)oc2cc(O)c(C3OC(CO)C(O)C(O)C3O)c(O)c12 (centres undefined)
4.17 min	COc1cc(-c2oc3cc(O)cc(O)c3c(=O)c2OC2OC(COC3OC(C)C(O)C(O)C3O)C(O)C(O)C2O)ccc1O (centres undefined)
8.54 min	CCCCCC=CCC(O)C(O)CCCCCCCC(=O)O (centres undefined)
3.36 min	COC(=O)C1=COC(OC2OC(CO)C(O)C(O)C2O)C2C1CC(O)C2C (centres undefined)
7.66 min	CC1=C(O)C(=O)CC(OC2CC(C)(C)CC3C4=CCC5C6(C)CCC(OC7OC(C(=O)O)C(O)C(O)C7OC7OC(C(=O)O)C(O)C(O)C7OC7OC(C)C(O)C(O)C7O)C(C)(CO)C6CCC5(C)C4(C)CCC23C)O1 (centres undefined)
2.36 min	CC(CSCC(NC(=O)CCC(N)C(=O)O)C(=O)NCC(=O)O)C(=O)O (centres undefined)
9.89 min	CC1CCC2(C(=O)O)CCC3(C)C(=CCC4C5(C)CC(O)C(O)C(C)(C)C5CCC43C)C2C1C (centres undefined)
9.63 min	CC(C)=CCC=C(C)C1CCC2(C)C1C(O)CC1C3(C)CCC(OC4OC(CO)C(O)C(O)C4OC4OC(CO)C(O)C(O)C4O)C(C)(C)C3CCC12C (centres undefined)
3.54 min	COc1cc(C=CC(=O)OC2OC(CO)C(O)C(O)C2O)cc(OC)c1O (centres undefined)
3.83 min	O=C(C=Cc1ccc(O)cc1)NCCCCNCCCNC(=O)C=Cc1ccc(O)cc1
3.62 min	CC1OC(Oc2cc(O)c3c(=O)c(OC4OC(COC5OC(CO)C(O)C(O)C5O)C(O)C(O)C4O)c(-c4ccc(O)cc4)oc3c2)C(O)C(O)C1O (centres undefined)
4.87 min	COC(=O)C1=COC(C)C2CN3CCc4c([nH]c5ccccc45)C3CC12 (centres undefined)
2.71 min	NCCCCNC(=O)c1ccccc1
5.71 min	COc1c(-c2ccccc2)oc2c(OC)c(O)cc(O)c2c1=O
5.27 min	COc1cc2cc3c4cc(OC)c(OC)cc4cc[n+]3c(C)c2cc1OC

Structure (SMILES)	LC retention time
CN1Cc2c(ccc3c2OCO3)C2C(O)Cc3cc4c(cc3C21)OCO4 (centres undefined)	4.53 min
C1CCC(C23CC(CC4CCCNC42)C2CCCCN2C3)NC1 (centres undefined)	2.24 min
CCN1CC2(CO)CCC(OC)C34C5CC6C(OC)CC(O)(C5C6OC)C(O)(C(OC)C23)C14 (centres undefined)	3.67 min
CC(C)=CCCC(C)(O)C1CCC2(C)C1C(O)CC1C3(C)CCC(O)C(C)(C)C3C(OC3OC(CO)C(O)C(O)C3O)CC12C (centres undefined)	6.29 min
COc1ccc2c3c([nH]c2c1)C1CC2C(=CCO)CN1C1C3OCC21 (centres undefined)	3.6 min
CC1=NCCc2c1[nH]c1cc(O)ccc21	3.06 min
CCC1CN2CCc3c([nH]c4ccccc34)C2CC1C(=COC)C(=O)OC (centres undefined)	5.85 min
CC1CCC2C(C)C3C(CC4C5CC=C6CC(OC7OC(CO)C(OC8OC(C)C(O)C(O)C8O)C(O)C7OC7OC(C)C(O)C(O)C7O)CCC6(C)C5CCC43C)N2C1 (centres undefined)	5.01 min
